Read-outs that look alike come from different tables or passages of the source.
Assays:
[1] = test system: human promyelocytic leukemia cell line HL-60; assay: Cytostatic activity in vitro, HL-60 sensitive line; type: cell-based; conditions: read-out: HL60 IC50
From the text: (§1) Tables 3 and 4 show cytostatic activity in vitro of 2,6-disubstituted and 2- or 6-monosubstituted (Tab.3), and of 2,5-disubstituted-(Tab.-4) tetracyclic anthrapyridazone derivatives using leukemia cell line HL-60 and the resistant cell sublines with resistance induced by vincristine (MDR-1) or doxorubicin (MRP). Activity of compounds is differentiated depending on their structure, but in all cases resistance indexes are more advantageous in comparison with reference compounds: doxorubicin and mitoxantrone.

HL60/VINC = assay: Cytostatic activity in vitro, vincristine-induced resistant subline (MDR-1); type: cell-based, human; conditions: for RI resistance index HL60/VINC / RI resistance index HL60VINC: IC50(resistant cells)/IC50(sensitive cells); for RI resistance index HL60/VINC: HL60/VINC vs HL60, 72 h; for RI resistance index HL60VINC: 96 h
From the text: as §1

HL60/DX = assay: Cytostatic activity in vitro, doxorubicin-induced resistant subline (MRP); type: cell-based, human; conditions: for RI resistance index HL60/DX: IC50(resistant cells)/IC50(sensitive cells)
From the text: as §1

[2] = test system: human prostate cancer cell line DU145; assay: Cytostatic activity in vitro, prostate cancer DU145; type: cell-based; conditions: 72 h continuous exposure
From the text: (§2) Table 5 presents activity in vitro of anthrapiridazone derivatives towards three cell lines of prostate cancer, naturally multidrug resistant, in comparison with references doxorubicin, mitoxantrone and taxol.

[3] = test system: human prostate cancer cell line LNCaP; assay: Cytostatic activity in vitro, prostate cancer LNCaP; type: cell-based; conditions: 72 h continuous exposure
From the text: as §2

[4] = test system: human prostate cancer cell line PC3; assay: Cytostatic activity in vitro, prostate cancer PC3; type: cell-based; conditions: 72 h continuous exposure
From the text: as §2

CT-DNA = assay: Interaction with isolated CT-DNA, fluorescence competition with ethidium bromide; type: binding; conditions: for IC50: 50% decrease in fluorescence intensity of DNA-bromide ethydine complex; for Kapp relative constant of DNA-compound bonding: Kapp = (1.26/C50) × KEtBr, KEtBr = 10^7M
From the text: It could be supposed that this property explains cytostatic activity of compounds. In Table 9 there are presented quantitative data on the affinity to DNA of tested compounds using the fluorescence method and competitive affinity to DNA of bromine ethydine and tested compounds.

[5] = 50% inhibition of cell growth after 72 h continuous exposure
[6] = 96 h continuous exposure, read-out: HL60VINC IC50

| SMILES | IC50 [1, 5] | IC50 (HL60/VINC; 72 h continuous exposure) | IC50 (HL60/DX; 72 h continuous exposure) | IC50 [2] | IC50 [3] | IC50 [4] | IC50 (CT-DNA) | IC50 ([1]; 96 h continuous exposure) | IC50 (HL60/VINC; [6]) | IC50 (HL60/DX; 96 h continuous exposure) | IC50 ([2]; Homo sapiens, DU-145) | IC50 ([3]; Homo sapiens, LNCaP) | IC50 ([4]; Homo sapiens) | RI resistance index HL60/VINC (HL60/VINC) | RI resistance index HL60/DX (HL60/DX; HL60/DX vs HL60, 72 h) | Kapp relative constant of DNA-compound bonding (CT-DNA) | RI resistance index HL60VINC (HL60/VINC) | RI resistance index HL60/DX (HL60/DX; 96 h) |
| --- | --- | --- | --- | --- | --- | --- | --- | --- | --- | --- | --- | --- | --- | --- | --- | --- | --- | --- |
| CN(C)CCNc1ccc2c(=O)n(CCO)nc3c2c1C(=O)c1ccccc1-3 [Compound C-167, 2-(2-Hydroxyethyl)-6-(2-dimethylamino)ethylamino-2H-dibenzo[de,h]cynnoline-3,7-dione] | 111 ± 27 nM | 393 ± 45 nM | 1240 ± 206 nM | 294 ± 53 nM | 202 ± 35 nM | 776 ± 45 nM | 2040 ± 70 nM | – | – | – | – | – | – | 3.5 | 11.1 | 6.2e+06 M⁻¹ | – | – |
| CN(C)CCn1nc2c3c(cc(NCCNCc4ccccc4)cc3c1=O)C(=O)c1ccccc1-2 [Compound C-171, 2-[2-(Dimethylamino)ethyl]-5-[(2-benzylamino)ethylamino]-2,7-dihydro-3H-dibenzo[de,h]cynnolino-3,7-dion] | – | – | – | – | – | – | – | 398 ± 25 nM | 375 ± 18 nM | 564 ± 34 nM | – | – | – | – | – | – | 0.9 | 1.4 |
| O=C1c2ccccc2-c2n[nH]c(=O)c3ccc(NCCNCc4ccccc4)c1c23 [PDZ-10, 6-(2-Benzylaminoetyloamino)-2,7-dihydro-3H-dibenzo[de,h]cynnoline-3,7-dione] | 758 ± 115 nM | 1160 ± 93 nM | 2770 ± 494 nM | 2090 ± 583 nM | 1550 ± 363 nM | 3010 ± 264 nM | 3150 ± 150 nM | – | – | – | – | – | – | 1.5 | 3.7 | 4e+06 M⁻¹ | – | – |
| CN(C)CCn1nc2c3c(c(NCc4ccccc4)ccc3c1=O)C(=O)c1ccccc1-2 [PDZ-8, 2-[2-(Dimethylamino)ethyl]-6-(N-benzylamino)-2,7-dihydro-3H-dibenzo[de,h]cynnoline-3,7-dione] | 719 ± 27 nM | 850 ± 93 nM | 4800 ± 1330 nM | 1220 ± 142 nM | 683 ± 17 nM | 1710 ± 125 nM | 7290 ± 280 nM | – | – | – | – | – | – | 1.2 | 6.7 | 1.7e+06 M⁻¹ | – | – |
| CC(=O)O[C@H]1C(=O)[C@@]2(C)[C@H]([C@H](OC(=O)c3ccccc3)[C@]3(O)C[C@H](OC(=O)[C@H](O)[C@@H](NC(=O)c4ccccc4)c4ccccc4)C(C)=C1C3(C)C)[C@]1(OC(C)=O)CO[C@@H]1C[C@@H]2O [Taxol, reference compound] | – | – | – | – | – | – | – | – | – | – | 3.9 ± 0.6 nM | 1.2 ± 0.3 nM | 4 ± 0.4 nM | – | – | – | – | – |
| CNc1ccc2c(=O)n(CCN(C)C)nc3c2c1C(=O)c1ccccc1-3 [PDZ-7, 2-[2-(Dimethylamino)ethyl]-6-(N-methylamino)-2,7-dihydro-3H-dibenzo[de,h]cynnoline-3,7-dione] | 21 ± 1 nM | 43 ± 2 nM | 620 ± 62 nM | 28.6 ± 2.8 nM | 65.4 ± 7.4 nM | 80.5 ± 12 nM | 1850 ± 160 nM | – | – | – | – | – | – | 2.0 | 29.5 | 6.8e+06 M⁻¹ | – | – |
| O=C1c2ccccc2C(=O)c2c(NCCNCCO)ccc(NCCNCCO)c21 [Ametantrone, reference compound] | – | – | – | – | – | – | 49 ± 6 nM | – | – | – | – | – | – | – | – | 2.57e+08 M⁻¹ | – | – |
| CC(=O)NCCCNc1ccc2c(=O)n(CCN(C)C)nc3c2c1C(=O)c1ccccc1-3 [PDZ-13, 2-[2-(Dimethylamino)ethyl]-6-[(3-acetylaminopropyl)amino]-2,7-dihydro-3H-dibenzo [de,h]cynnoline-3,7-dione] | 13 ± 1 nM | 421 ± 24 nM | 3240 ± 558 nM | 36.7 ± 7.4 nM | 50.7 ± 10.2 nM | 106 ± 5.7 nM | 1840 ± 160 nM | – | – | – | – | – | – | 32.4 | 249.2 | 6.8e+06 M⁻¹ | – | – |
| CCCCNCCNc1ccc2c(=O)[nH]nc3c2c1C(=O)c1ccccc1-3 [PDZ-9, 6-(2-Butylaminoethylamino)-2,7-dihydro-3H-dibenzo[de,h]cynnoline-3,7-dione] | 311 ± 54 nM | 574 ± 12 nM | 1180 ± 94 nM | 558 ± 129 nM | 427 ± 80 nM | 1250 ± 206 nM | 2100 ± 100 nM | – | – | – | – | – | – | 1.8 | 3.8 | 6e+06 M⁻¹ | – | – |
| CN(C)CCn1nc2c3c(cc(NCCN)cc3c1=O)C(=O)c1ccccc1-2 [Compound C-170, 2-[2-(Dimethylamino)ethyl]-5-(2-aminoetyloamino)-2,7-dihydro-3H-dibenzo[de,h]cynnoline-3,7-dione] | – | – | – | – | – | – | – | 8.2 ± 1 nM | 210 ± 52 nM | 753 ± 29 nM | – | – | – | – | – | – | 25.6 | 91.9 |

More lines, in order of falling IC50 (CT-DNA), values ahead:

| IC50 [1, 5] | IC50 (HL60/VINC; 72 h continuous exposure) | IC50 (HL60/DX; 72 h continuous exposure) | IC50 [2] | IC50 [3] | IC50 [4] | IC50 (CT-DNA) | IC50 ([1]; 96 h continuous exposure) | IC50 (HL60/VINC; [6]) | IC50 (HL60/DX; 96 h continuous exposure) | IC50 ([2]; Homo sapiens, DU-145) | IC50 ([3]; Homo sapiens, LNCaP) | IC50 ([4]; Homo sapiens) | SMILES | RI resistance index HL60/VINC (HL60/VINC) | RI resistance index HL60/DX (HL60/DX; HL60/DX vs HL60, 72 h) | Kapp relative constant of DNA-compound bonding (CT-DNA) | RI resistance index HL60VINC (HL60/VINC) | RI resistance index HL60/DX (HL60/DX; 96 h) |
| --- | --- | --- | --- | --- | --- | --- | --- | --- | --- | --- | --- | --- | --- | --- | --- | --- | --- | --- |
| 1150 ± 244 nM | 1010 ± 51 nM | 4470 ± 428 nM | 1480 ± 127 nM | 927 ± 92 nM | 2830 ± 234 nM | 1630 ± 120 nM | – | – | – | – | – | – | CN(C)CCCNc1ccc2c(=O)[nH]nc3c2c1C(=O)c1ccccc1-3 [Compound C-131, 6-[(3-Dimethylamino)propyl]amino-3H-dibenzo[de,h]cynnoline-3,7-dione] | 0.9 | 3.9 | 7.7e+06 M⁻¹ | – | – |
| 28 ± 6 nM | 79 ± 7 nM | 870 ± 173 nM | 32.8 ± 1.4 nM | 44.8 ± 5.6 nM | 85.5 ± 10.1 nM | 990 ± 10 nM | – | – | – | – | – | – | CC(=O)Nc1ccc2c(=O)n(CCN(C)C)nc3c2c1C(=O)c1ccccc1-3 [PDZ-14, 2-[2-(Dimethylamino)ethyl]-6-(acetylamino)-2,7-dihydro-3H-dibenzo[de,h]cynnoline-3,7-dione] | 2.8 | 31.1 | 1.27e+07 M⁻¹ | – | – |
| – | – | – | – | – | – | 500 ± 60 nM | – | – | – | – | – | – | CC(=O)[C@]1(O)Cc2c(O)c3c(c(O)c2[C@@H](O[C@H]2C[C@H](N)[C@H](O)[C@H](C)O2)C1)C(=O)c1ccccc1C3=O [Idarubicin, reference compound] | – | – | 2.5e+07 M⁻¹ | – | – |
| 8.7 ± 0.5 nM | 58 ± 6 nM | 827 ± 145 nM | 25.6 ± 2.6 nM | 52.9 ± 12.1 nM | 127 ± 38.6 nM | 310 ± 40 nM | – | – | – | – | – | – | CC(CNc1ccc2c(=O)n(CC(C)N(C)C)nc3c2c1C(=O)c1ccccc1-3)N(C)C (stereo not drawn) [Compound C-123, 2-[2-(Dimethylamino)propyl]-6-{[2-(dimethylamino)propyl]amino}-2,7-dihydro-3H-dibenzo[de,h]cynnoline-3,7-dione] | 6.7 | 95.1 | 4.04e+07 M⁻¹ | – | – |
| 19 ± 4 nM | 116 ± 28 nM | 446 ± 100 nM | 71.4 ± 21.6 nM | 26.2 ± 7.2 nM | 144 ± 32.7 nM | 310 ± 10 nM | – | – | – | – | – | – | CCN(CC)CCNc1ccc2c(=O)n(CCN(C)C)nc3c2c1C(=O)c1ccccc1-3 [Compound C-155, 2-[2-(Dimethylamino)ethyl]-6-{[(2-diethylamino)ethyl]amino}-2,7-dihydro-3H-dibenzo[de,h]cynnoline-3,7-dione] | 6.1 | 23.5 | 4.02e+07 M⁻¹ | – | – |
| 2.2 ± 0.1 nM | 8.7 ± 0.4 nM | 364 ± 36 nM | 22.6 ± 5.2 nM | 11 ± 1.4 nM | 75.2 ± 16.2 nM | 280 ± 50 nM | – | – | – | – | – | – | CCNCCNc1ccc2c(=O)n(CCN(C)C)nc3c2c1C(=O)c1ccccc1-3 [Compound C-180, 2-[2-(Dimethylamino)ethyl]-6-{[2-(ethylamino)ethyl]amino}-2,7-dihydro-3H-dibenzo[de,h]cynnoline-3,7dione] | 4.0 | 165.5 | 4.53e+07 M⁻¹ | – | – |
| 31 ± 6 nM | 48 ± 7 nM | 330 ± 17 nM | 21.8 ± 4.7 nM | 28.2 ± 7.4 nM | 122 ± 27.6 nM | 230 ± 10 nM | – | – | – | – | – | – | CN(C)CCn1nc2c3ccccc3c3nn(CCN(C)C)c4ccc(c1=O)c2c34 [Compound C-163, Bis-2,6-[2-(dimethylamino)ethyl]-2,6-dihydro-5H-benzo[h]indazolo[5,4,3-def]cynnoline-5-one] | 1.5 | 10.6 | 5.57e+07 M⁻¹ | – | – |
| 8.6 ± 0.9 nM | 82.2 ± 6.1 nM | 2600 ± 436 nM | 47.3 ± 11.5 nM | 31.4 ± 4.6 nM | 245 ± 36 nM | 220 ± 60 nM | – | – | – | – | – | – | CN(C)CCn1nc2c3c(c(NCCCN)ccc3c1=O)C(=O)c1ccccc1-2 [PDZ-20, 2-[2-(Dimethylamino)ethyl]-6-[(3-aminopropyl)amino]-2,7-dihydro-3H-dibenzo [de,h]cynnoline-3,7-dione] | 9.6 | 302.2 | 5.79e+07 M⁻¹ | – | – |

Source: patent publication US9096536B2, “Asymmetrically substituted anthrapyridazone derivatives as cytostatics” (BS-154 S.P. ZO.O., priority 2011, dated 2015)
